Converted amounts (≈) assume the structure as drawn. The source made the active and inactive calls. The calls are words filed in the database; no cut-off is given here.
Columns and labels:
[1] = Partition coefficient (logP); type: physicochemical; details: octanol/water
[2] = system: Human rhinovirus sp.; assay: Antirhinoviral activity against Human Rhinovirus serotypes R1A, R1B, R2, R6, R14, R15, R21, R22, R25, R30, R41, R50, R67, R86 and R89; Inactive against HRV-86; type: functional, organism-based
[3] = system: Human rhinovirus sp.; assay: Antirhinoviral activity against Human Rhinovirus serotypes R1A, R1B, R2, R6, R14, R15, R21, R22, R25, R30, R41, R50, R67, R86 and R89; type: functional
[4] = system: Human rhinovirus sp.; assay: Antirhinoviral activity against Human Rhinovirus R2; type: functional
[5] = system: Human rhinovirus sp.; assay: Antirhinoviral activity against Human Rhinovirus R21; type: functional
[6] = system: Human rhinovirus sp.; assay: Antirhinoviral activity against Human Rhinovirus R22; type: functional
[7] = system: Human rhinovirus sp.; assay: Antirhinoviral activity against Human Rhinovirus R25; type: functional
[8] = system: Human rhinovirus sp.; assay: Antirhinoviral activity against Human Rhinovirus R30; type: functional
[9] = system: Human rhinovirus sp.; assay: Antirhinoviral activity against Human Rhinovirus R41; Not active; type: functional, organism-based
[10] = system: Human rhinovirus sp.; assay: Antirhinoviral activity against Human Rhinovirus R50; type: functional
[11] = system: Human rhinovirus sp.; assay: Antirhinoviral activity against Human Rhinovirus R67; type: functional
[12] = system: Human rhinovirus sp.; assay: Antirhinoviral activity against Human Rhinovirus R6; Not active; type: functional, organism-based
[13] = system: Human rhinovirus sp.; assay: Antirhinoviral activity against Human Rhinovirus R86; type: functional
[14] = system: Human rhinovirus sp.; assay: Antirhinoviral activity against Human Rhinovirus R89; type: functional
[15] = system: Human rhinovirus sp.; assay: Antirhinoviral activity against Human Rhinovirus R14; Not active; type: functional, organism-based
[16] = system: Human rhinovirus sp.; assay: Antirhinoviral activity against Human Rhinovirus R15; type: functional
[17] = system: Human rhinovirus sp.; assay: Antirhinoviral activity against Human Rhinovirus R1A; type: functional
[18] = system: Human rhinovirus sp.; assay: Antirhinoviral activity against Human Rhinovirus R1B; type: functional
[19] = system: Human rhinovirus sp.; assay: Antirhinoviral activity against Human Rhinovirus serotypes R1A, R1B, R2, R6, R14, R15, R21, R22, R25, R30, R41, R50, R67, R86 and R89.; type: functional
[20] = system: Human rhinovirus sp.; assay: Antirhinoviral activity against Human Rhinovirus serotypes R1A, R1B, R2, R6, R14, R15, R21, R22, R25, R30, R41, R50, R67, R86 and R89; Inactive against HRV-6, 14, 86; type: functional, organism-based
[21] = system: Human rhinovirus sp.; assay: Antirhinoviral activity against Human Rhinovirus R14; type: functional
[22] = system: Human rhinovirus sp.; assay: Antirhinoviral activity against Human Rhinovirus R86; Not active; type: functional, organism-based
[23] = system: Human rhinovirus sp.; assay: Antirhinoviral activity against Human Rhinovirus R41; type: functional
[24] = system: Human rhinovirus sp.; assay: Antirhinoviral activity against Human Rhinovirus R6; type: functional

Compound | logP [1] | MIC [4] | MIC [5] | MIC [6] | MIC [7] | MIC [8] | MIC [10] | MIC [11] | MIC [13] | MIC [14] | MIC [16] | MIC [17] | MIC [18] | Mean activity [19] | MIC [21] | other results
Cc1noc(-c2cc(C)c(OCCCc3cccnc3)c(C)c2)n1 | 3.3 |  |  |  |  |  |  |  |  |  |  |  |  |  |  | Mean activity [2]: inactive
Cc1cc(CCCOc2c(C)cc(-c3nc(C)no3)cc2C)on1 | 3.2 |  |  |  |  |  |  |  |  |  |  |  |  |  |  | Mean activity [3]: 0.22 µM
Cc1cc(-c2nnn(C)n2)cc(C)c1OCCCCCc1ccncc1 |  | 0.26 µM (≈ 0.0914 µg/mL) | 0.08 µM (≈ 0.0281 µg/mL) | 0.2 µM (≈ 0.0703 µg/mL) | 0.11 µM (≈ 0.0387 µg/mL) | 0.36 µM (≈ 0.127 µg/mL) | 0.36 µM (≈ 0.127 µg/mL) | 0.51 µM (≈ 0.179 µg/mL) | 0.43 µM (≈ 0.151 µg/mL) | 0.07 µM (≈ 0.0246 µg/mL) | 2.13 µM (≈ 0.749 µg/mL) | 0.68 µM (≈ 0.239 µg/mL) | 0.27 µM (≈ 0.0949 µg/mL) |  |  | MIC [9]: inactive; MIC [12]: inactive; MIC [15]: inactive
Cc1ccc(CCCOc2c(C)cc(-c3nc(C)no3)cc2C)cn1 | 3.8 |  |  |  |  |  |  |  |  |  |  |  |  | 0.25 µM |  | 
Cc1cc(-c2nnn(C)n2)cc(C)c1OCCCc1cccnc1 |  |  |  |  |  |  |  |  |  |  |  |  |  |  |  | Mean activity [20]: inactive
Cc1cc(CCCOc2c(C)cc(-c3nnn(C)n3)cc2C)on1 |  |  |  |  |  |  |  |  |  |  |  |  |  | 0.73 µM |  | 
Cc1ccc(CCCOc2c(C)cc(-c3nnn(C)n3)cc2C)cn1 |  |  |  |  |  |  |  |  |  |  |  |  |  | 0.54 µM |  | 
Cc1cc(-c2nnn(C)n2)cc(C)c1OCCCCCc1ccccn1 |  | 0.34 µM (≈ 0.119 µg/mL) | 0.05 µM (≈ 0.0176 µg/mL) | 0.21 µM (≈ 0.0738 µg/mL) | 0.08 µM (≈ 0.0281 µg/mL) | 0.25 µM (≈ 0.0879 µg/mL) | 0.36 µM (≈ 0.127 µg/mL) | 1.19 µM (≈ 0.418 µg/mL) |  | 0.06 µM (≈ 0.0211 µg/mL) | 1.91 µM (≈ 0.671 µg/mL) | 0.66 µM (≈ 0.232 µg/mL) | 0.11 µM (≈ 0.0387 µg/mL) |  | 3.84 µM (≈ 1.35 µg/mL) | MIC [9]: inactive; MIC [12]: inactive; MIC [22]: inactive
Cc1cc(CCCCCOc2c(C)cc(-c3nnn(C)n3)cc2C)on1 |  | 0.04 µM (≈ 0.0142 µg/mL) | 0.04 µM (≈ 0.0142 µg/mL) | 0.08 µM (≈ 0.0284 µg/mL) | 0.31 µM (≈ 0.11 µg/mL) | 0.11 µM (≈ 0.0391 µg/mL) | 0.23 µM (≈ 0.0818 µg/mL) | 0.35 µM (≈ 0.124 µg/mL) | 0.84 µM (≈ 0.299 µg/mL) | 0.04 µM (≈ 0.0142 µg/mL) | 0.77 µM (≈ 0.274 µg/mL) | 0.42 µM (≈ 0.149 µg/mL) | 0.1 µM (≈ 0.0355 µg/mL) |  | 0.62 µM (≈ 0.22 µg/mL) | MIC [23]: 1.43 µM (≈ 0.508 µg/mL); MIC [24]: 0.98 µM (≈ 0.348 µg/mL)
Cc1cc(-c2nnn(C)n2)cc(C)c1OCCCCCc1cccnc1 |  | 0.2 µM (≈ 0.0703 µg/mL) | 0.03 µM (≈ 0.0105 µg/mL) | 0.17 µM (≈ 0.0597 µg/mL) | 0.04 µM (≈ 0.0141 µg/mL) | 0.17 µM (≈ 0.0597 µg/mL) | 2.28 µM (≈ 0.801 µg/mL) | 0.37 µM (≈ 0.13 µg/mL) | 1.08 µM (≈ 0.38 µg/mL) | 0.03 µM (≈ 0.0105 µg/mL) | 1.25 µM (≈ 0.439 µg/mL) | 0.28 µM (≈ 0.0984 µg/mL) | 0.1 µM (≈ 0.0351 µg/mL) |  | 1.05 µM (≈ 0.369 µg/mL) | MIC [23]: 2.16 µM (≈ 0.759 µg/mL); MIC [24]: 0.82 µM (≈ 0.288 µg/mL)
